The nature of assay [1]: Inhibition of NS5A L31M mutant in HCV genotype 2a J6 (M31) infected in human HuH7 replicon cells assessed as reduction in viral replication after 3 days by luciferase reporter gene assay.
Assay [2] is described as follows: Inhibition of NS5A in HCV genotype 1a H77 infected in human HuH7 replicon cells assessed as reduction in viral replication after 3 days by luciferase reporter gene assay. In general terms: A replicon is a self-replicating genome or part of one, used to study replication in cells.
Assay [3] is described as follows: Inhibition of NS5A in HCV genotype 3a S52 infected in human HuH7 transient chimeric replicon cells assessed as reduction in viral replication after 3 days by luciferase reporter gene assay.
Assay [4] is described as follows: Inhibition of NS5A in HCV genotype 1b Con1 infected in human HuH7 replicon cells assessed as reduction in viral replication after 3 days by luciferase reporter gene assay.
Assay [5] in a line: Inhibition of NS5A in HCV genotype 4a ED43 infected in human HuH7 replicon cells assessed as reduction in viral replication after 3 days by luciferase reporter gene assay.
The nature of assay [6]: Inhibition of NS5A in HCV genotype 2a JFH1 infected in human HuH7 replicon cells assessed as reduction in viral replication after 3 days by luciferase reporter gene assay.
Assay [7] in a line: Inhibition of NS5A in HCV genotype 2b MD2b-1 infected in human HuH7 replicon cells assessed as reduction in viral replication after 3 days by luciferase reporter gene assay.
Assay [8] in a line: Inhibition of NS5A L31M mutant in HCV genotype 2a JFH1 infected in human HuH7 replicon cells assessed as reduction in viral replication after 3 days by luciferase reporter gene assay.
Assay [9] can be described thus: Inhibition of NS5A L31M mutant in patient derived HCV genotype 2b MD2b-1 infected in human HuH7 replicon cells assessed as reduction in viral replication after 3 days by luciferase reporter gene assay.
The nature of assay [10]: Inhibition of NS5A in HCV genotype 2a JFH1 (L31) infected in human HuH7 replicon cells assessed as reduction in viral replication after 3 days by luciferase reporter gene assay.
Assay [11] in a line: Inhibition of NS5A in HCV genotype 4a ED43 infected in human HuH7 transient chimeric replicon cells assessed as reduction in viral replication after 3 days by luciferase reporter gene assay.

Some results are limits rather than exact numbers.

`COC[C@H]1C[C@@H](c2ncc(-c3ccc4c(c3)COc3cc5c(ccc6nc([C@@H]7C[C@@H]8C[C@H]8N7C(=O)[C@@H](NC(=O)OC)C(C)C)[nH]c65)cc3-4)[nH]2)N(C(=O)[C@H](NC(=O)OC)c2ccccc2)C1`: the 50% effective concentration (EC50) in assay [1] worked out at 0.021 nM; in assay [2], 0.013 nM; in assay [3], 0.025 nM; in [4], 0.02 nM; in [5] it was 0.009 nM; in [6], 0.007 nM. For the same compound, in [7], the EC50 was found to be 0.028 nM.
In the case of `COC[C@H]1C[C@@H](c2ncc(-c3ccc4c(c3)COc3cc5c(ccc6nc([C@@H]7CCCN7C(=O)[C@@H](NC(=O)OC)C(C)C)[nH]c65)cc3-4)[nH]2)N(C(=O)[C@H](NC(=O)OC)c2ccccc2)C1`, the EC50 came to 0.013 nM in assay [1]; 0.011 nM in assay [2]; 0.017 nM in assay [3]; 0.019 nM in [4]; 0.007 nM in [5]; 0.006 nM in assay [6]. Moreover, the EC50 in assay [7] came out at 0.009 nM.
Take `COC(=O)N[C@H](C(=O)N1CCC[C@H]1c1ncc(-c2cc3c4c(c2)OCc2cc(-c5cnc([C@@H]6CCCN6C(=O)[C@H](NC(=O)OC)c6ccccc6)[nH]5)cc(c2-4)OC3)[nH]1)C1CCOCC1`: the half-maximal effective concentration (EC50) was determined as 0.28 nM in [1]; 0.32 nM in assay [2]; 0.315 nM in assay [4]; 0.32 nM in assay [8]; 0.057 nM in [9]; 0.022 nM in assay [10].
`COC(=O)N[C@H](C(=O)N1CCC[C@H]1c1ncc(-c2cc3c4c(c2)OCc2cc(-c5cnc([C@@H]6CCCN6C(=O)[C@@H](NC(=O)OC)C6CCC6)[nH]5)cc(c2-4)OC3)[nH]1)C1CCC1`: the EC50 in assay [2] worked out at 0.053 nM; in assay [4] it was 0.02 nM; in [8] it was 31.3 nM; in [10] it was 0.02 nM.
As for `COC(=O)N[C@H](C(=O)N1CCC[C@H]1c1ncc(-c2cc3c4c(c2)OCc2cc(-c5cnc([C@@H]6CCCN6C(=O)[C@@H](NC(=O)OC)C6CCOCC6)[nH]5)cc(c2-4)OC3)[nH]1)C(C)C`, the EC50 in assay [1] is 1.43 nM; in [2] it was 0.185 nM; in assay [4], 0.172 nM; in [8] it was 1.33 nM; in assay [10], 0.014 nM.
Consider `COC(=O)N[C@H](C(=O)N1CCC[C@H]1c1ncc(-c2ccc3c(c2)COc2cc4c(ccc5nc([C@@H]6CCCN6C(=O)[C@H](NC(=O)OC)c6ccccc6)[nH]c54)cc2-3)[nH]1)C(C)C`, for which the EC50 in assay [1] was determined as 0.134 nM; in [2] it was 0.022 nM; in assay [3], 0.005 nM; in assay [4], 0.021 nM; in [11] it was 0.008 nM; in [6], 0.004 nM. The EC50 in [9] is 0.012 nM.
Consider `COC(=O)N[C@H](C(=O)N1CCC[C@H]1c1ncc(-c2cc3c4c(c2)OCc2cc(-c5cnc([C@@H]6CCCN6C(=O)[C@@H](NC(=O)OC)[C@@H](C)OC)[nH]5)cc(c2-4)OC3)[nH]1)C(C)C`, for which the EC50 in [2] is 0.087 nM; in [4], 0.079 nM; in assay [8], 3.67 nM; in [10], 0.01 nM.
Take `COC[C@H]1C[C@@H](c2ncc(-c3ccc4c(c3)COc3cc5c(ccc6nc([C@@H]7C[C@H]8C[C@@H]8N7C(=O)[C@@H](NC(=O)OC)C(C)C)[nH]c65)cc3-4)[nH]2)N(C(=O)[C@H](NC(=O)OC)c2ccccc2)C1`: the 50% effective concentration (EC50) in assay [1] was found to be 0.113 nM; in assay [2], 0.01 nM; in [3], 0.018 nM; in [4] it was 0.011 nM; in [5], 0.009 nM; in assay [6] it was 0.006 nM. The EC50 in [7] amounted to 0.046 nM.
As to `COC(=O)N[C@H](C(=O)N1CCC[C@H]1c1ncc(-c2ccc3c4ccc(-c5cnc([C@@H]6CCCN6C(=O)[C@@H](NC(=O)OC)C(C)C)[nH]5)cc4c4ccccc4c3c2)[nH]1)C(C)C`, the concentration giving a half-maximal response (EC50) amounted to 0.092 nM in assay [2], 0.005 nM in assay [4], 6.79 nM in assay [8] and 0.02 nM in assay [10].
For `CC[C@H](C)[C@H](NC(=O)OC)C(=O)N1CCC[C@H]1c1ncc(-c2cc3c4c(c2)OCc2cc(-c5cnc([C@@H]6CCCN6C(=O)[C@@H](NC(=O)OC)[C@@H](C)CC)[nH]5)cc(c2-4)OC3)[nH]1`, the 50% effective concentration (EC50) was 0.031 nM in assay [2]; 0.019 nM in assay [4]; 12.1 nM in [8]; 1.85 nM in assay [9]; 0.009 nM in assay [10].
As for `COC(=O)N[C@H](C(=O)N1CCC[C@H]1c1ncc(-c2cc3c4c(c2)CCc2cc(-c5cnc([C@@H]6CCCN6C(=O)[C@@H](NC(=O)OC)C(C)C)[nH]5)cc(c2-4)CC3)[nH]1)C(C)C`, the EC50 in [2] was determined as 0.156 nM; in assay [4], 0.021 nM; in [8], 13.3 nM; in assay [10], 0.131 nM.
In the case of `COC(=O)N[C@@H](C(=O)N1CCC[C@H]1c1ncc(-c2cc3c4c(c2)OCc2cc(-c5cnc([C@@H]6CCCN6C(=O)[C@H](NC(=O)OC)c6ccccc6)[nH]5)cc(c2-4)OC3)[nH]1)c1ccccc1`, the 50% effective concentration (EC50) in [1] was 0.24 nM; in assay [2] it was 0.093 nM; in assay [4], 0.048 nM; in [8] it was 0.145 nM; in [9], 0.022 nM; in assay [10] it was 0.007 nM.
In the case of `COC(=O)N[C@H](C(=O)N1CCC[C@H]1c1nc2ccc3cc4c(cc3c2[nH]1)OCc1cc(-c2cnc([C@@H]3CCCN3C(=O)[C@H](NC(=O)OC)c3ccccc3)[nH]2)ccc1-4)C(C)C`, the 50% effective concentration (EC50) amounted to 0.073 nM in [1]; 0.035 nM in assay [2]; 0.006 nM in [3]; 0.033 nM in assay [4]; 0.011 nM in assay [11]; 0.006 nM in assay [6]. For the same compound, the half-maximal effective concentration (EC50) in assay [9] amounted to 0.016 nM.
Take `COC(=O)N[C@H](C(=O)N1CCC[C@H]1c1ncc(-c2cc3c4c(c2)COc2cc(-c5cnc([C@@H]6CCCN6C(=O)[C@@H](NC(=O)OC)C(C)C)[nH]5)cc(c2-4)OC3)[nH]1)C(C)C`: the EC50 amounted to 0.087 nM in [2], 0.021 nM in assay [4], 9.85 nM in assay [8] and 0.019 nM in assay [10].
For `COC(=O)N[C@H](C(=O)N1C[C@@H](C)C[C@H]1c1nc2ccc3cc4c(cc3c2[nH]1)OCc1cc(-c2cnc([C@@H]3C[C@H](C)CN3C(=O)[C@H](NC(=O)OC)c3ccccc3)[nH]2)ccc1-4)C(C)C`, the 50% effective concentration (EC50) was 0.045 nM in assay [1]; 0.033 nM in assay [2]; 0.05 nM in assay [3]; 0.03 nM in assay [4]; 0.063 nM in assay [5]; 0.018 nM in assay [6]. The EC50 in assay [7] came to 0.027 nM.
Consider `COC(=O)N[C@H](C(=O)N1CCC[C@H]1c1ncc(-c2cc3c4c(c2)OCc2cc(-c5cnc([C@@H]6CCCN6C(=O)[C@H](NC(=O)OC)c6ccccc6)[nH]5)cc(c2-4)OC3)[nH]1)C(C)C`, for which the EC50 came out at 1.82 nM in [1]; 0.05 nM in assay [2]; 0.031 nM in [4]; 0.6 nM in [8]; 0.076 nM in assay [9]; 0.004 nM in assay [10].
Regarding `COC(=O)N[C@@H](C(=O)N1[C@@H](C)CC[C@H]1c1ncc(-c2cc3c4c(c2)OCc2cc(-c5cnc([C@@H]6CC[C@H](C)N6C(=O)[C@H](NC(=O)OC)c6ccccc6)[nH]5)cc(c2-4)OC3)[nH]1)c1ccccc1`, the EC50 amounted to 1.84 nM in assay [1]; 0.15 nM in [2]; 0.004 nM in assay [3]; 0.02 nM in assay [4]; 0.015 nM in [11]; 0.008 nM in [6]. Moreover, the concentration giving a half-maximal response (EC50) in [9] was 0.094 nM.
As for `COC(=O)N[C@@H](C(=O)N1C[C@@H](C)C[C@H]1c1ncc(-c2cc3c4c(c2)OCc2cc(-c5cnc([C@@H]6C[C@H](C)CN6C(=O)[C@H](NC(=O)OC)c6ccccc6)[nH]5)cc(c2-4)OC3)[nH]1)c1ccccc1`, the EC50 turned out to be 0.058 nM in [1]; 0.031 nM in assay [2]; 0.006 nM in assay [3]; 0.02 nM in assay [4]; 0.013 nM in assay [11]; 0.005 nM in assay [6]. Moreover, in [9], the EC50 was determined as 0.026 nM.
Regarding `COC[C@H]1C[C@@H](c2ncc(-c3ccc4c(c3)COc3cc5c(ccc6nc([C@@H]7C[C@H](C)CN7C(=O)[C@@H](NC(=O)OC)C(C)C)[nH]c65)cc3-4)[nH]2)N(C(=O)[C@H](NC(=O)OC)c2ccccc2)C1`, the EC50 stood at 0.014 nM in assay [1]; 0.013 nM in assay [2]; 0.025 nM in assay [3]; 0.017 nM in assay [4]; 0.011 nM in assay [5]; 0.006 nM in assay [6]. Besides, in [7], the EC50 was found to be 0.015 nM.
On to `COC(=O)N[C@H](C(=O)N1CCC[C@H]1c1ncc(-c2cc3c4c(c2)OCc2cc(-c5cnc([C@@H]6CCCN6C(=O)[C@@H](NC(=O)OC)C6CCCC6)[nH]5)cc(c2-4)OC3)[nH]1)C1CCCC1`, for which the EC50 in [2] is 0.055 nM; in assay [4] it was 0.022 nM; in assay [8] it was above 44 nM; in [10], 0.022 nM.

In general, EC50 refers to the concentration that produces a half-maximal response.

The values are drawn from BindingDB's records for doi:10.1016/j.bmcl.2019.04.027 (Gilead Sciences, 2019).
